Read-outs that look alike come from different tables or passages of the source.
How the values were obtained:
[1] = Plasma pharmacokinetics after oral dosing in NRG mice; assay type: in vivo; conditions: mouse; for Vd/F: read-out: Vz/F
Experimental: Mice were dosed orally with ART631 at empirically determined maximally tolerated doses (MTDs) of 75 mg/kg ART631 as a single dose alone or 15 mg/kg as a multiple dose regimen (once daily x5), either alone or in combination with SOR (30 mg/kg/d) and VEN (150 mg/kg/d), for side-by-side comparison to the ART838, SOR and VEN combination evaluated previously ([20]). ART631, SOR, and VEN were mixed in vehicle and given as a single administration. Mice (n = 3/time point) were euthanized at 0.5, 1, 1.5, 2, 3, 4, 6, 8 and 12 h after dosing. ART631 was quantified in plasma as described below. Pharmacokinetic parameters were calculated from mean concentration-time data using non-compartmental methods in Phoenix WinNonlin version 8.3 (Certara, Princeton, NJ). The maximum plasma concentration (Cmax) and time to Cmax (Tmax) were the observed values. The AUClast was calculated using the log-linear trapezoidal method. AUC was extrapolated to infinity (AUCINF) by dividing the last quantifiable concentration by the terminal disposition rate constant (λz). The λz was determined from at least 3 points on the slope of the terminal phase of the concentration-time profile. The terminal half-life (T1/2) was determined by dividing 0.693 by λz. Apparent clearance (Cl/F) was calculated by dividing the dose administered by AUCINF. Apparent volume of distribution (V/F) was calculated by dividing Cl/F by λz. If the percent AUC extrapolated was >20% or the r^2 of λz was <0.85, the AUCINF, Cl/F, T1/2 and V/F were not reported.
The Method of Bailer was used to estimate the variance of AUC given the calculated variance of the mean concentration at each time point ([23]). A pairwise comparison utilizing Z test was used to determine whether there was a significant difference between ART631 exposures as expressed by AUClast ([24]). In all cases, p < 0.05 was considered statistically significant.
(§1) ART631 was extracted from 25 µL plasma or microsomal solutions with 100 µL acetonitrile containing artemisinin (i.e. the natural product) as internal standard. […] Mobile phase A was ammonium acetate (2mM) containing 0.1% formic acid, and mobile phase B was acetonitrile containing 0.1% formic acid. The gradient started with mobile phase B and was held at 40% for 0.5 minutes with a flow rate of 0.4 mL/min, then increased to 100% over 1.5 minutes and held for 2.0 minutes, and finally returned back to 40% mobile phase B and allowed to equilibrate for 2.0 minutes. An AB Sciex 5500 triple quadrupole mass spectrometer operated in positive electrospray ionization mode was used for the detection of ART631. For stability studies, the ratio of ART631 to the internal standard, artemisinin, was assessed. Calibration curves for ART631 were computed using the ratio of the peak area to that of the internal standard by using a quadratic equation with a 1/x^2 weighting function over the range of 8-1585 nM with dilutions of up to 1:10 (v/v).

Stability in plasma = assay type: in vitro ADME, human and mouse; conditions: species not given
Experimental: (§2) The metabolic stability of ART631 was assessed in human and mouse plasma and liver microsomes (LM). For phase I microsomal stability assays, analogs (10 µM in <1% acetonitrile) were incubated in PBS containing liver microsomes, with or without cofactors ([22]). Microsomal controls (without cofactors) were used to determine non-enzymatic degradation. All experiments were incubated at 37°C for 1h and performed in duplicate. Reactions were stopped with acetonitrile and analyzed as described below.
We compared the in vitro stability of ART576 and ART631 ( Table 3 ). ART576 was stable in plasma (<10% degradation), but unstable with degradation of >70% in human liver microsomes with co-factors and >90% in mouse liver microsomes with co-factors ( Table 3 ).

[2] = Phase I microsomal stability, mouse liver microsomes; assay type: in vitro ADME
Experimental: as §2, §1

[3] = Phase I microsomal stability, human liver microsomes; assay type: in vitro ADME
Experimental: as §2, §1

[4] = 15 mg/kg/day, NRG mice plasma, 15 mg/kg/d PO qd x 5 alone, after 5th dose
[5] = NRG mice plasma, 15 mg/kg/d PO qd x 5 in SAV (SOR 30 mg/kg/d, VEN 150 mg/kg/d), after 5th dose
[6] = NRG mice plasma, 75 mg/kg PO x 1
[7] = 10 µM, 37°C, 1h, with cofactors
[8] = 10 µM, 37°C, 1h, without cofactors
[9] = NADPH-dependent phase I metabolism

Question: Which results are given for C=CCO/N=C(/C[C@H]1O[C@@H]2O[C@@]3(C)CC[C@H]4[C@H](C)CC[C@@H]([C@H]1C)[C@@]24OO3)[C@H]1O[C@@H]2O[C@@]3(C)CC[C@H]4[C@H](C)CC[C@@H]([C@H]1C)[C@@]24OO3 [ART631]?
Answer: half-life ([1]; NRG, plasma, oral, ART631 alone, single and multiple dose regimens, read-out: half-life): 1.1 to 1.7 h; AUC(0-t) [1, 4]: 2.74 µM·h; CL/F [1, 4]: 145 mL/min/kg; Cmax [1, 4]: 935 nM; Tmax [1, 4]: 2 h; half-life ([1]; 15 mg/kg/day, NRG mice plasma, 15 mg/kg/d PO qd x 5 alone, after 5th dose, read-out: T1/2 (converted)): 1.7 h; Vd/F [1, 4]: 21.5 L/kg; AUC(0-t) [1, 5]: 3.73 µM·h; CL/F [1, 5]: 102 mL/min/kg; Cmax [1, 5]: 719 nM; Tmax [1, 5]: 2 h; half-life ([1]; NRG mice plasma, 15 mg/kg/d PO qd x 5 in SAV (SOR 30 mg/kg/d, VEN 150 mg/kg/d), after 5th dose, read-out: T1/2 (converted)): 2.4 h; Vd/F [1, 5]: 21.3 L/kg; AUC(0-t) [1, 6]: 22.9 µM·h; CL/F [1, 6]: 86.7 mL/min/kg; Cmax [1, 6]: 13100 nM; Tmax [1, 6]: 1.5 h; half-life ([1]; NRG mice plasma, 75 mg/kg PO x 1, read-out: T1/2 (converted)): 1.1 h; Vd/F [1, 6]: 8.4 L/kg; degradation in plasma (Stability in plasma): > 40%; percentage remaining, Phase I Metabolism MLM NADPH(+) [2, 7]: 35%; percentage remaining, Phase I Metabolism MLM NADPH(-) [2, 8]: 60%; degradation in mouse liver microsomes with co-factors [2, 9]: ~ 40%; percentage remaining, Phase I Metabolism HLM NADPH(+) [3, 7]: 60%; percentage remaining, Phase I Metabolism HLM NADPH(-) [3, 8]: 86%; degradation in human liver microsomes with co-factors [3, 9]: ~ 30%
